Reference: patent publication US20200048259A1, “KDM5 INHIBITORS” (priority 2016, published 2020)

Molecular target: T1, Full-length KDM5B enzyme (Homo sapiens, UniProt Q9UGL1)
T1 construct: recombinant protein from baculovirus-transfected Sf21 cells: full-length KDM5B; MW=176.825 kDa; host or cells: baculovirus-transfected Sf21 insect cells
Assay: KDM5B TR-FRET Enzyme Activity Assay (LANCE)
Assay type: biochemical
Conditions: not given
Description: KDM5B TR-FRET Enzyme Activity Assay
KDM5B enzymatic activity was determined with the LANCE (Lanthanide Chelate Excite) TR-FRET (Time-resolved fluorescence resonance energy transfer) assay. […] Following a 30 minutes compound and enzyme incubation in a humidified chamber, each reaction was initiated by the addition of 1 μL 1× assay buffer containing […] biotinylated H3K4Me3 peptide, and 500 nM α-ketoglutarate. The final reaction in each well of 5 μL consists of 5 nM KDM5B, 500 nM biotinylated-peptide, and 500 nM α-ketoglutarate. De-methylation reactions were allowed to proceed for 60 minutes. Reactions were immediately quenched by the addition of 5 μL of 2× Lance Detection Buffer (PerkinElmer) with 0.5 mM EDTA and 2 nM of Eu-anti-H3K4Mel-2 antibody, and 30 nM of Streptavidin-conjugated Dylight 650 detection reagents. After 60 minutes incubation with detection reagents, reaction plates were read on a PerkinElmer EnVision plate reader using standard TR-FRET protocol. Briefly, excitation of donor molecules (Eu-chelate-anti-H3K4Me1-2-antibody) with a laser light source at 337 nm produces energy that can be transferred to Dylight-650 acceptor molecules if this donor:acceptor pair is within close proximity.
Fluorescence intensity at both 665 nm (acceptor) and 615 nm (donor) are measured and a TR-FRET ratio calculated for each well (acceptor intensity/donor intensity). IC50 values were determined by 4 parameter robust fit of TR-FRET ratio values vs. (Log 10) compound concentrations.

T1 sequence (Q9UGL1 whole entry): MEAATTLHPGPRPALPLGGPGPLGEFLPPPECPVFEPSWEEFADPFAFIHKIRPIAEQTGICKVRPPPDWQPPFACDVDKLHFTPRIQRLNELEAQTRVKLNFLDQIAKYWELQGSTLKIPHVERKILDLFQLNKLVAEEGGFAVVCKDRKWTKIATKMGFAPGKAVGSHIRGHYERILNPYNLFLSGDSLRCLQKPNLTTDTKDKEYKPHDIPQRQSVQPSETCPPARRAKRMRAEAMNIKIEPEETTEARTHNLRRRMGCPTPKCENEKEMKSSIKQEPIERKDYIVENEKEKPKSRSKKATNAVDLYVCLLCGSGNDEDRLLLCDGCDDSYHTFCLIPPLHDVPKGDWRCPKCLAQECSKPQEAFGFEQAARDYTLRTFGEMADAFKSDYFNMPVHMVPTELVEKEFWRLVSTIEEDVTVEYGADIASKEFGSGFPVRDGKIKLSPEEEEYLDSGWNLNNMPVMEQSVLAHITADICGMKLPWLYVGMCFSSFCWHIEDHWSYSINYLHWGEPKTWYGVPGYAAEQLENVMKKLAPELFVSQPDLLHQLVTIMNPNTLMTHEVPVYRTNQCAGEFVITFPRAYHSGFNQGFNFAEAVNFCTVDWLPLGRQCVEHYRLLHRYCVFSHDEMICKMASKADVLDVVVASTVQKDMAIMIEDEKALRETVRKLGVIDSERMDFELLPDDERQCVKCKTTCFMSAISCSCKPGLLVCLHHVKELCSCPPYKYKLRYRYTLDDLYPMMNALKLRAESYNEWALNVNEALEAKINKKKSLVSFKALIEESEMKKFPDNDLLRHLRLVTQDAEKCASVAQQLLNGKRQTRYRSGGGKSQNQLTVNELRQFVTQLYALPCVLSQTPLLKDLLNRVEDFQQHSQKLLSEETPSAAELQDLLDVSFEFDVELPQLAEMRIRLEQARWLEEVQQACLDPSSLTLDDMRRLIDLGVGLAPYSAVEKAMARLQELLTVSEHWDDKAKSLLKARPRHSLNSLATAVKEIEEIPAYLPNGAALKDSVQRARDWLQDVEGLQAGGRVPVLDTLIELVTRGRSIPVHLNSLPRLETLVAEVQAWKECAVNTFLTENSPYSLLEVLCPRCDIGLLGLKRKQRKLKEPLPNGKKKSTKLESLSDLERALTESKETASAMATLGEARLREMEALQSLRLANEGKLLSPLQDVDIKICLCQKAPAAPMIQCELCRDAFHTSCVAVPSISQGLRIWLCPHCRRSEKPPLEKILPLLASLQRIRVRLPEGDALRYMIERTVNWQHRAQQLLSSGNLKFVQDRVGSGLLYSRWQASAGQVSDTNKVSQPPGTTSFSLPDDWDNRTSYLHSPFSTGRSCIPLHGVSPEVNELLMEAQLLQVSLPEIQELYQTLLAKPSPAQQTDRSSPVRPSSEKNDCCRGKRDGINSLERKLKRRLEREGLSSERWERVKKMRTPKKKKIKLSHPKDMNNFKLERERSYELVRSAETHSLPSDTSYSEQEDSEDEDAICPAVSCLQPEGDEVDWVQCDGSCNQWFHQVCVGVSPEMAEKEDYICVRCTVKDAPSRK

IC50 | SMILES
> 100 µM | Cc1nc2[nH]c(C)c(Cc3ccccc3)c(=O)n2n1 [Example 7-4, 6-benzyl-2,5-dimethyl[1,2,4]triazolo[1,5-a]pyrimidin-7(4H)-one]
> 100 µM | Cc1nc2[nH]c(C(C)C)cc(=O)n2n1 [Example 7-6, 2-methyl-5-(1-methylethyl)[1,2,4]triazolo[1,5-a]pyrimidin-7(4H)-one]
> 100 µM | CCCCc1c(C)[nH]c2nc(C)nn2c1=O [Example 7-8, 6-butyl-2,5-dimethyl[1,2,4]triazolo[1,5-a]pyrimidin-7(4H)-one]
> 100 µM | Cc1[nH]c2nc(C3CC(F)(F)C3)nn2c(=O)c1C(C)C [Example 7-23, 2-(3,3-difluorocyclobutyl)-5-methyl-6-(1-methylethyl)[1,2,4]triazolo[1,5-a]pyrimidin-7(4H)-one]
> 100 µM | Cc1[nH]c2nc(-c3ccco3)nn2c(=O)c1C(C)C [Example 7-27, 2-furan-2-yl-5-methyl-6-(1-methylethyl)[1,2,4]triazolo[1,5-a]pyrimidin-7(4H)-one]
> 100 µM | Cc1[nH]c2nc(-c3ccccn3)nn2c(=O)c1C(C)C [Example 7-28, 5-methyl-6-(1-methylethyl)-2-pyridin-2-yl[1,2,4]triazolo[1,5-a]pyrimidin-7(4H)-one]
35.4 µM | Cc1[nH]c2nc(C(C)C)nn2c(=O)c1C(C)C [Example 7-29, 5-methyl-2,6-bis(1-methylethyl)[1,2,4]triazolo[1,5-a]pyrimidin-7(4H)-one]
> 100 µM | Cc1[nH]c2nc(N3CCOCC3)nn2c(=O)c1C(C)C [Example 7-30, 5-methyl-6-(1-methylethyl)-2-morpholin-4-yl[1,2,4]triazolo[1,5-a]pyrimidin-7(4H)-one]
> 100 µM | Cc1nc2[nH]c(C(C)(C)C)cc(=O)n2n1 [Example 7-38, 5-tert-butyl-2-methyl[1,2,4]triazolo[1,5-a]pyrimidin-7(4H)-one]
> 100 µM | Cc1nc2[nH]c(C(F)(F)C(F)(F)F)cc(=O)n2n1 [Example 7-41, 2-methyl-5-(pentafluoroethyl)[1,2,4]triazolo[1,5-a]pyrimidin-7(4H)-one]
> 100 µM | Cc1nc2[nH]c(C)c(C3CCCC3)c(=O)n2n1 [Example 7-45, 6-cyclopentyl-2,5-dimethyl[1,2,4]triazolo[1,5-a]pyrimidin-7(4H)-one]
> 100 µM | Cc1nc2[nH]c(C3CC3)cc(=O)n2n1 [Example 7-46, 5-cyclopropyl-2-methyl[1,2,4]triazolo[1,5-a]pyrimidin-7(4H)-one]

Same assay, conditions: 5 nM full-length KDM5B, biotinylated H3K4Me3 peptide, 500 nM α-ketoglutarate; ten point titration 100000 nM to 5.08 nM; read-out: IC50

IC50 | SMILES
97 µM | CCCc1cc(=O)n2nc(C)nc2[nH]1 [Example 7-2, 2-methyl-5-propyl[1,2,4]triazolo[1,5-a]pyrimidin-7(4H)-one]
22.2 µM | CCc1c(C)[nH]c2nc(N)nn2c1=O [Example 7-3, 2-amino-6-ethyl-5-methyl-[1,2,4]triazolo[1,5-a]pyrimidin-7(4H)-one]
27.8 µM | CCc1c(C)[nH]c2nc(C)nn2c1=O [Example 7-5, 6-ethyl-2,5-dimethyl-[1,2,4]triazolo[1,5-a]pyrimidin-7(4H)-one]
32 µM | Cc1nc2[nH]c(C)c(C)c(=O)n2n1 [Example 7-7, 2,5,6-trimethyl[1,2,4]triazolo[1,5-a]pyrimidin-7(4H)-one]
9.09 µM | CCc1c(C)[nH]c2nc(C(F)(F)F)nn2c1=O [Example 7-9, 6-ethyl-5-methyl-2-(trifluoromethyl)[1,2,4]triazolo[1,5-a]pyrimidin-7(4H)-one]
4.28 µM | Cc1cc(=O)n2nc(-c3ccncc3)nc2[nH]1 [Example 7-10, 5-methyl-2-(pyridin-4-yl)-[1,2,4]triazolo[1,5-a]pyrimidin-7(4H)-one]
27.9 µM | Cc1nc2[nH]c(C(F)(F)F)cc(=O)n2n1 [Example 7-11, 2-methyl-5-(trifluoromethyl)-[1,2,4]triazolo[1,5-a]pyrimidin-7(4H)-one]
73.7 µM | CCc1cc(=O)n2nc(C)nc2[nH]1 [Example 7-12, 5-ethyl-2-methyl-[1,2,4]triazolo[1,5-a]pyrimidin-7(4H)-one]
2.96 µM | CCOC(=O)c1[nH]c2nc(C)nn2c(=O)c1Cl [Example 7-13, ethyl 6-chloro-2-methyl-7-oxo-4,7-dihydro[1,2,4]triazolo[1,5-a]pyrimidine-5-carboxylate]
34.9 µM | CCc1c(C)[nH]c2nc(C(=O)OC)nn2c1=O [Example 7-14, methyl 6-ethyl-5-methyl-7-oxo-4,7-dihydro[1,2,4]triazolo[1,5-a]pyrimidine-2-carboxylate]
68.1 µM | COC(=O)Cc1c(C)[nH]c2nc(C(=O)OC)nn2c1=O [Example 7-15, methyl 6-(2-methoxy-2-oxoethyl)-5-methyl-7-oxo-4,7-dihydro[1,2,4]triazolo[1,5-a]pyrimidine-2-carboxylate]
3.41 µM | Cc1[nH]c2nc(N)nn2c(=O)c1C(C)C [Example 7-16, 2-amino-5-methyl-6-(1-methylethyl)[1,2,4]triazolo[1,5-a]pyrimidin-7(4H)-one]
48.6 µM | Cc1[nH]c2nc(C3CC3)nn2c(=O)c1C(C)C [Example 7-18, 2-cyclopropyl-5-methyl-6-(1-methylethyl)[1,2,4]triazolo[1,5-a]pyrimidin-7(4H)-one]
92.7 µM | Cc1[nH]c2nc(C3CCC3)nn2c(=O)c1C(C)C [Example 7-19, 2-cyclobutyl-5-methyl-6-(1-methylethyl)[1,2,4]triazolo[1,5-a]pyrimidin-7(4H)-one]
3.97 µM | CCc1c(-c2ccccc2)[nH]c2nc(C)nn2c1=O [Example 7-20, 6-ethyl-2-methyl-5-phenyl[1,2,4]triazolo[1,5-a]pyrimidin-7(4H)-one]
7.99 µM | Cc1nc2[nH]c(C)c(C(C)C)c(=O)n2n1 [Example 7-21, 2,5-dimethyl-6-(1-methylethyl)[1,2,4]triazolo[1,5-a]pyrimidin-7(4H)-one]

IC50 | SMILES
33.7 µM | Cc1[nH]c2nc(-c3ccc(F)cc3)nn2c(=O)c1C(C)C [Example 7-24, 2-(4-fluorophenyl)-5-methyl-6-(1-methylethyl)[1,2,4]triazolo[1,5-a]pyrimidin-7(4H)-one]
67.6 µM | Cc1[nH]c2nc(-c3ccc(C(F)(F)F)cc3)nn2c(=O)c1C(C)C [Example 7-25, 5-methyl-6-(1-methylethyl)-2-[4-(trifluoromethyl)phenyl][1,2,4]triazolo[1,5-a]pyrimidin-7(4H)-one]
95.8 µM | Cc1[nH]c2nc(-c3ccccc3Cl)nn2c(=O)c1C(C)C [Example 7-26, 2-(2-chlorophenyl)-5-methyl-6-(1-methylethyl)[1,2,4]triazolo[1,5-a]pyrimidin-7(4H)-one]
39.2 µM | Cc1nc2[nH]c(C)c(Cl)c(=O)n2n1 [Example 7-31, 6-chloro-2,5-dimethyl[1,2,4]triazolo[1,5-a]pyrimidin-7(4H)-one]
2.07 µM | Cc1[nH]c2nc(C(F)(F)F)nn2c(=O)c1C(C)C [Example 7-32, 5-methyl-6-(1-methylethyl)-2-(trifluoromethyl)[1,2,4]triazolo[1,5-a]pyrimidin-7(4H)-one]
4.24 µM | CCc1c(-c2ccn(C)n2)[nH]c2nc(C)nn2c1=O [Example 7-33, 6-ethyl-2-methyl-5-(1-methyl-1H-pyrazol-3-yl)[1,2,4]triazolo[1,5-a]pyrimidin-7(4H)-one]
1.25 µM | Cc1[nH]c2nc(Cl)nn2c(=O)c1C(C)C [Example 7-34, 2-chloro-5-methyl-6-(1-methylethyl)[1,2,4]triazolo[1,5-a]pyrimidin-7(4H)-one]
1.92 µM | Cc1[nH]c2nc(Br)nn2c(=O)c1C(C)C [Example 7-35, 2-bromo-5-methyl-6-(1-methylethyl)[1,2,4]triazolo[1,5-a]pyrimidin-7(4H)-one]
25.4 µM | Cc1nc2[nH]c(-c3ccn(C)n3)cc(=O)n2n1 [Example 7-36, 2-methyl-5-(1-methyl-1H-pyrazol-3-yl)[1,2,4]triazolo[1,5-a]pyrimidin-7(4H)-one]
66.5 µM | Cc1[nH]c2nc(CCCO)nn2c(=O)c1C(C)C [Example 7-37, 2-(3-hydroxypropyl)-5-methyl-6-(1-methylethyl)[1,2,4]triazolo[1,5-a]pyrimidin-7(4H)-one]
8.07 µM | Cc1nc2[nH]c(-c3ccc(F)cc3)cc(=O)n2n1 [Example 7-39, 5-(4-fluorophenyl)-2-methyl[1,2,4]triazolo[1,5-a]pyrimidin-7(4H)-one]
36.7 µM | Cc1nc2[nH]c(-c3ccoc3)cc(=O)n2n1 [Example 7-40, 5-furan-3-yl-2-methyl[1,2,4]triazolo[1,5-a]pyrimidin-7(4H)-one]
21.1 µM | COc1c(C(F)(F)F)[nH]c2nc(C)nn2c1=O [Example 7-42, 6-methoxy-2-methyl-5-(trifluoromethyl)[1,2,4]triazolo[1,5-a]pyrimidin-7(4H)-one]
23.2 µM | Cc1nc2[nH]c(-c3ccccn3)cc(=O)n2n1 [Example 7-43, 2-methyl-5-pyridin-2-yl[1,2,4]triazolo[1,5-a]pyrimidin-7(4H)-one]
33.8 µM | Cc1nc2[nH]c(-c3ccco3)cc(=O)n2n1 [Example 7-44, 5-furan-2-yl-2-methyl[1,2,4]triazolo[1,5-a]pyrimidin-7(4H)-one]
